ChEMBL document CHEMBL1129421, “Comparative molecular field analysis of haptens docked to the multispecific antibody IgE(Lb4)” (J Med Chem, 1996)

Test system: Monoclonal antibody (mAb)
Assay: Ability to bind to monoclonal antibody IgE (Lb4), expressed as association constant (LogKA)

SMILES	Log KA
O=C(O)c1cccc(C(=O)O)c1C(=O)O	4.77
O=C(O)C(CO)Nc1ccc([N+](=O)[O-])cc1[N+](=O)[O-] (centres undefined)	5.5
O=C(O)CCC(Nc1ccc([N+](=O)[O-])cc1[N+](=O)[O-])C(=O)O (centres undefined)	4.63
Nc1ccc2ccccc2c1	5.71
CC(O)C(Nc1ccc([N+](=O)[O-])cc1[N+](=O)[O-])C(=O)O (centres undefined)	5.49
O=C(O)C1CCCN1c1ccc([N+](=O)[O-])cc1[N+](=O)[O-] (centres undefined)	5.19
NC(=O)CC(Nc1ccc([N+](=O)[O-])cc1[N+](=O)[O-])C(=O)O (centres undefined)	4.92
O=C(O)C(Cc1ccccc1)Nc1ccc([N+](=O)[O-])cc1[N+](=O)[O-] (centres undefined)	5.78
N#C/C(=C\c1ccccc1)C(=O)O	5.04
CSCCC(Nc1ccc([N+](=O)[O-])cc1[N+](=O)[O-])C(=O)O (centres undefined)	5.72
O=C(O)C(Cc1c[nH]c2ccccc12)Nc1ccc([N+](=O)[O-])cc1[N+](=O)[O-] (centres undefined)	5.93
Nc1ccc(/N=N/c2ccccc2)c(N)n1	6.5
O[C@](CCN1CCCCC1)(c1ccccc1)C1CCCC1	4.84
CC(=O)Nc1nnc(S(N)(=O)=O)s1	5
Cc1ccc(O)c(C(=O)O)c1	5.38
CC(Nc1ccc([N+](=O)[O-])cc1[N+](=O)[O-])C(=O)O (centres undefined)	5.8
CC(C)CC(Nc1ccc([N+](=O)[O-])cc1[N+](=O)[O-])C(=O)O (centres undefined)	5.39
O=C(CCC(=O)Oc1ccccc1C(=O)O)Oc1ccccc1C(=O)O	4.57
O[C@@](CCN1CCCCC1)(c1ccccc1)C1CCCC1	4.84
O=C(O)C(Cc1ccc(O)cc1)Nc1ccc([N+](=O)[O-])cc1[N+](=O)[O-] (centres undefined)	4.85
CC(C)C(Nc1ccc([N+](=O)[O-])cc1[N+](=O)[O-])C(=O)O (centres undefined)	5.93
O=C(O)c1ccc2ccccc2c1O	6.71
O=[N+]([O-])c1ccc(O)c([N+](=O)[O-])c1	4.89
N[C@@H](CCCCNc1ccc([N+](=O)[O-])cc1[N+](=O)[O-])C(=O)O	4.38
O=C(O)CC(Nc1ccc([N+](=O)[O-])cc1[N+](=O)[O-])C(=O)O (centres undefined)	5.5
C[N+](C)(C)CC(O)C[N+](C)(C)C	4.66
O=C(O)CNc1ccc([N+](=O)[O-])cc1[N+](=O)[O-]	4.9
N=C(N)NCCC[C@H](Nc1ccc([N+](=O)[O-])cc1[N+](=O)[O-])C(=O)O	5.04
NC(=O)CCC(Nc1ccc([N+](=O)[O-])cc1[N+](=O)[O-])C(=O)O (centres undefined)	5.08
